Results from article PMC9739695, “Water-Soluble Salts Based on Benzofuroxan Derivatives—Synthesis and Biological Activity” (International Journal of Molecular Sciences, 2022).
Where two headings read alike, the source gives them in different places.

Legend:
[1] = test system: BDF1 mice; test: Acute toxicity, single intraperitoneal administration; assay type: in vivo
Method: (§1) To determine LD50, a curve of increasing toxicity was built with increasing dose, based on which the following parameters were additionally determined: MTD, LD16, LD84 and LD100.
(§2) In the experiment, clinically healthy animals were used, which were kept in the same conditions with a 12-h light and free access to water and food. Each experimental group included six animals. […] Control animals received 0.9% NaCl solution. Animals were monitored continuously for 4 h on the first day after administration of the test compounds. […] Calculation of toxic doses was performed using probit analysis.

[2] = as above; assay type: in vivo; settings: male, BDF1 [DBA2 × C57Bl6] hybrid, mouse, in vivo, ip, BDF1 mice, single intraperitoneal administration
Method: as §1, §2

[3] = test system: Hep-2 (larynx carcinoma); test: Cell viability, MTT test; assay type: cell-based; settings: Homo sapiens, read-out: IC50 (concentration causing 50% inhibition of cell population growth)
Method: (§3) In this work, the cytotoxic potential of the water-soluble salts based on benzofuroxan was determined by the effect of compounds on the survival of the cell tumor origin cultures (SH-SY5Y, Hep2, A549, HeLa) using the MTT test. To understand how the synthesized compounds can influence the healthy microenvironment in the body, the effect of substances on the viability of a normal Hek 293 cell culture was additionally evaluated.
(§4) Human cell cultures of tumor origin—SH-SY5Y (neuroblastoma), HeLa (cervical tumor), Hep-2 (larynx carcinoma), A549 (adenocarcinomic human alveolar basal epithelial cells)—and normal cell line Hek 293 (human embryonic kidneys), provided by the Laboratory of Tumor Cell Genetics of the Scientific Research Institute of Carcinogenesis, N.N. Blokhin National Medical Research Center of Oncology, as well as the Institute of Cytology of the Russian Academy of Sciences, were grown in a nutrient medium DMEM (PanEco, Moscow, Russia) and MEM (PanEco, Moscow, Russia), containing fetal bovine serum (10% by volume) (ThermoFisher Scientific, Paisley, UK), Glutamax (2 mM) (Gibco, Scotland, UK), and penicillin-streptomycin (1% by volume) (PanEco, Moscow, Russia). The cultivation was carried out at 37 °C in a humidified CO2 atmosphere (5%).
(§5) Cell viability was determined by MTT test. Cells were seeded in a 96-well plate in the amount of 1 × 10^4 cells/200µLof complete nutrient medium and cultured at 37 °C in CO2 (5%). After 24 h of incubation, various concentrations of test compounds in the range from 0.1 to 100 μM, were added to the cell cultures, and then the cells were cultured under the same conditions for 24 and 72 h. For each concentration, the experiment was carried out in triplicate.
(§6) All compounds were dissolved in DMSO, then diluted with the medium to the required concentration. […] The DMSO was also added to the control wells in a volume of 1%. After the incubation time, MTT (3-(4,5-dimethylthiazol-2-yl)-2,5-diphenyltetrazolium bromide, 5 mg/mL) was added to each well and plates were additionally incubated for 2 h (until the characteristic color appeared).
(§7) Using a plate analyzer (Cytation3, BioTech Instruments Inc., Winooski, VT, USA), the optical density was determined at 530 nm. The concentration value causing 50% inhibition of cell population growth (IC50) was determined from dose-dependent curves.

[4] = test system: HeLa (cervical tumor); test: Cell viability, MTT test; assay type: cell-based; settings: Homo sapiens, read-out: IC50 (concentration causing 50% inhibition of cell population growth)
Method: as §3, §4, §5, §6, §7

[5] = test system: A549 (adenocarcinomic human alveolar basal epithelial cells); test: Cell viability, MTT test; assay type: cell-based; settings: read-out: IC50 (concentration causing 50% inhibition of cell population growth)
Method: as §3, §4, §5, §6, §7

[6] = test system: Hek 293 (human embryonic kidneys); test: Cell viability, MTT test, normal cell line; assay type: cell-based; settings: read-out: IC50 (concentration causing 50% inhibition of cell population growth)
Method: as §3, §4, §5, §6, §7

[7] = test system: alfalfa seeds; test: Pre-sowing seed treatment, sowing qualities of alfalfa seeds; assay type: in vivo; settings: control 76
Method: (§8) When evaluating the effectiveness of treatment of wheat, alfalfa, barley, rice, and sorghum seeds as fungicidal and bactericidal agents with preparation compounds at concentrations of 10, 20, and 40 mmol, their effect on the suppression of seed infection was evaluated.
(§9) […] The sowing qualities were evaluated (germination energy for 3–4 days, laboratory germination for 7–8 days) according to GOST 12038-84 [60]. Sowing qualities of seeds were determined in wet chambers. According to the sample, 50 seeds were taken in 4-fold repetition.

[8] = test system: SH-SY5Y (neuroblastoma); test: Cell viability, MTT test; assay type: cell-based, Human; settings: for IC50: Homo sapiens, SH-SY5Y, read-out: IC50 (concentration causing 50% inhibition of cell population growth)
Method: as §3, §4, §5, §6, §7

[9] = test system: rice seeds; test: Pre-sowing seed treatment, sowing qualities of rice seeds; assay type: in vivo; settings: for germination energy: control 71.4; for laboratory germination: control 95.2
Method: as §8, §9

[10] = test system: wheat seeds; test: Pre-sowing seed treatment, sowing qualities of wheat seeds; assay type: in vivo; settings: for germination energy: control 82; for laboratory germination: control 85.7
Method: as §8, §9

[11] = single intraperitoneal administration, doses given in mg/kg, probit analysis

In the case of `O=[N+]([O-])c1c(Cl)cc2c(no[n+]2[O-])c1NCCCN1CCOCC1` [4e, 6-chloro-4-(3-(morpholino-4-ium)propylamino)-5-nitrobenzo[c][1,2,5]oxadiazole 1-oxide chloride], the “toxicity class from acute toxicity study” value ([1]; single i.p.) is reported as “highly toxic”, the “Body Weight” value ([1]; single i.p. 10 mg/kg, 0 Day, control 21.55 ± 0.28) is reported as 20.25 ± 0.39 g and the “Body Weight” value ([1]; single i.p. 10 mg/kg, 1 Day, control 21.43 ± 0.56) is reported as 20.39 ± 0.47 g. The “Body Weight” value ([1]; single i.p. 10 mg/kg, 2 Days, control 21.67 ± 0.77) was 20.51 ± 0.40 g, the “Body Weight” value ([1]; single i.p. 10 mg/kg, 3 Days, control 21.99 ± 0.79) was 20.88 ± 0.31 g and the “Body Weight” value ([1]; single i.p. 10 mg/kg, 7 Days, control 22.80 ± 0.44) was 21.58 ± 0.51 g. The “Body Weight” value ([1]; single i.p. 10 mg/kg, 14 Days, control 23.96 ± 0.68) was 22.12 ± 0.62 g, the “Body Weight” value ([1]; single i.p. 15 mg/kg, 0 Day, control 21.55 ± 0.28) was 21.48 ± 0.47 g and the “Body Weight” value ([1]; single i.p. 15 mg/kg, 1 Day, control 21.43 ± 0.56) was 21.45 ± 0.51 g. The “Body Weight” value ([1]; single i.p. 15 mg/kg, 2 Days, control 21.67 ± 0.77) was 21.56 ± 0.49 g, the “Body Weight” value ([1]; single i.p. 15 mg/kg, 3 Days, control 21.99 ± 0.79) was 21.62 ± 0.59 g and the “Body Weight” value ([1]; single i.p. 15 mg/kg, 7 Days, control 22.80 ± 0.44) was 22.02 ± 0.47 g. The “Body Weight” value ([1]; single i.p. 15 mg/kg, 14 Days, control 23.96 ± 0.68) was 22.66 ± 0.38 g, the “Body Weight” value ([1]; single i.p. 20 mg/kg, 0 Day, control 21.55 ± 0.28) was 21.45 ± 0.52 g and the “Body Weight” value ([1]; single i.p. 20 mg/kg, 1 Day, control 21.43 ± 0.56) was 21.44 ± 0.71 g. For the same compound, the “Body Weight” value ([1]; single i.p. 20 mg/kg, 2 Days, control 21.67 ± 0.77) was 21.88 ± 0.81 g, the “Body Weight” value ([1]; single i.p. 20 mg/kg, 3 Days, control 21.99 ± 0.79) was 22.02 ± 0.74 g and the “Body Weight” value ([1]; single i.p. 20 mg/kg, 7 Days, control 22.80 ± 0.44) was 22.74 ± 0.58 g. For the same compound, the “Body Weight” value ([1]; single i.p. 20 mg/kg, 14 Days, control 23.96 ± 0.68) was 23.01 ± 0.65 g, the “Body Weight” value ([1]; single i.p. 25 mg/kg, 0 Day, control 21.55 ± 0.28) was 22.27 ± 0.29 g and the “Body Weight” value ([1]; single i.p. 25 mg/kg, 1 Day, control 21.43 ± 0.56) was 21.98 g. For the same compound, the “Body Weight” value ([1]; single i.p. 25 mg/kg, 2 Days, control 21.67 ± 0.77) was 21.81 g, the “Body Weight” value ([1]; single i.p. 25 mg/kg, 3 Days, control 21.99 ± 0.79) was 21.89 g and the “Body Weight” value ([1]; single i.p. 25 mg/kg, 7 Days, control 22.80 ± 0.44) was 22.15 g. The “Body Weight” value ([1]; single i.p. 25 mg/kg, 14 Days, control 23.96 ± 0.68) was 22.74 g, the “Body Weight” value ([1]; single i.p. 30 mg/kg, 0 Day, control 21.55 ± 0.28) was 21.92 ± 0.13 g and the “time after administration at which death of animals began” value ([1]; single i.p., doses of 15–30 mg/kg) was 5 to 30 min. For the same compound, the LD100 ([1]; single intraperitoneal administration, doses given in mg/kg) was 30, the LD16 [1, 11] was 18.2 and the LD84 [1, 11] was 24.6. For the same compound, the MTD at 14 days ([2]; doses given in mg/kg) was 10 mg/kg, the LD50 at 14 days ([2]; probit analysis) was 22 ± 1.33 mg/kg and the IC50 ([3]; HEp-2, 24 h) was 83 ± 1.37 µM. The IC50 ([3]; HEp-2, 72 h) was 70.21 ± 0.54 µM, the IC50 ([4]; 24 h) was greater than 100 µM and the IC50 ([4]; 72 h) was 93.8 ± 2.53 µM. For the same compound, the IC50 ([5]; A549, 24 h) was 90.2 ± 3.43 µM, the IC50 ([5]; A549, 72 h) was 77.1 ± 1.36 µM and the IC50 ([6]; HEK293, 24 h) was 99 ± 2.09 µM. The IC50 ([6]; HEK293, 72 h) was 86.5 ± 5.75 µM, the germination energy ([7]; 10 mmol) was 46.6% and the laboratory germination ([7]; 10 mmol) was 46.6%. The germination energy ([7]; 20 mmol) was 78.5%, the laboratory germination ([7]; 20 mmol) was 79.5% and the germination energy ([7]; 40 mmol) was 73%. It also gave a laboratory germination ([7]; 40 mmol) of 74%, an IC50 ([8]; 24 h) of 24.1 ± 1.22 µM and an IC50 ([8]; 72 h) of 20.2 ± 0.72 µM. The selectivity index ([8]; IC50 on neuroblastoma SH-SY5Y with respect to Hek 293, 24 h) was “more than 4”, the germination energy ([9]; 10 mmol) was 38% and the laboratory germination ([9]; 10 mmol) was 38%. The “sowing qualities of seeds compared with control” value ([9]; 20 mmol) was “better results than the control”, the germination energy ([9]; 20 mmol) was 98.5% and the laboratory germination ([9]; 20 mmol) was 99%. For the same compound, the “sowing qualities of seeds compared with control” value ([9]; 40 mmol) was “better results than the control”, the germination energy ([9]; 40 mmol) was 99% and the laboratory germination ([9]; 40 mmol) was 99%. The germination energy ([10]; 10 mmol) was 33.3%, the laboratory germination ([10]; 10 mmol) was 42.8% and the “sowing qualities of seeds compared with control” value ([10]; 20 mmol) was “higher than in the case of controls”. The germination energy ([10]; 20 mmol) was 97%, the laboratory germination ([10]; 20 mmol) was 97.5% and the “sowing qualities of seeds compared with control” value ([10]; 40 mmol) was “higher than in the case of controls”. For the same compound, the germination energy ([10]; 40 mmol) was 98% and the laboratory germination ([10]; 40 mmol) was 99%.
